The values below come from publication PMC10804667, “Molecular mechanism of Fe^3+ binding inhibition to Vibrio metschnikovii ferric ion‐binding protein, FbpA, by rosmarinic acid and its hydrolysate, danshensu” (Protein Science : A Publication of the Protein Society, 2024).

Values after ≈ are worked out from the molar mass of the structure shown. Values joined by “and” are separate entries in the source; they are usually repeats but may differ in a detail not shown here. Equal entries are not always repeated. Some results are limits rather than exact numbers.

For data set [1], the target named is VmFbpA. Briefly: 6×His-based VmFbpA inhibition assay (pull-down assay) of Fe3+ binding. Type of data set: biochemical, Vibrio metschnikovii. The following applies: 60 min at 4°C, 20 mM Tris–HCl pH 8.0, 50 mM NaHCO3, 100 mM NaCl, read-out: IC50 to VmFbpA (inhibition of Fe^3+ binding). On the procedure:
(§1) Fe^3+‐bound His6‐VmFbpA (30 μM, 200 μL) was loaded onto a 40 μL Ni‐NTA slurry resin (bed volume: 20 μL) in a Micro Bio‐Spin column (Bio‐Rad) and incubated at 4°C for 30 min. The column was extensively washed with wash buffer (20 mM Tris–HCl, pH 8.0, 50 mM NaHCO3, 100 mM NaCl). Various concentrations of RA, DSS, or CA (200 μL) were added to the column and incubated for 60 min at 4°C in a solvent consisting of 20 mM Tris–HCl, pH 8.0, 50 mM NaHCO3, and 100 mM NaCl. The column was washed extensively with wash buffer and eluted with 100 μL of elution buffer (wash buffer containing 250 mM imidazole). The Fe concentration of the eluent was determined using ICP‐MS as reported previously (Lu et al. [2019]) and adjusted to the protein concentration, which was measured using a Pierce 660 nm Protein Assay. Samples without FeCl3 were used as a negative control group and samples lacking inhibitors were used as a positive control group. All buffers contained 0.3% DMSO to solubilize the inhibitors, unless otherwise indicated.
(§2) The protein inhibitory rates were calculated using the following formula: Inhibitory rates%=1−Conc.Fesample−Conc.Feapo/Conc.Feholo−Conc.Feapo×100%
(§3) The inhibitory rate was plotted and fitted as a function of inhibitor concentration by a logarithmic function model using GraphPad Prism (version: 9.5.0) software. The 50% inhibitory concentration (IC50) was calculated by reading the concentration at the inhibitory rate of 50%.

The nature of data set [2]: Fe3+ reduction capacity (o-phenanthroline assay). To be noted: 40 μM Fe^3+; concentration giving 20 μM Fe^2+; read-out: EC50 for reduction from Fe^3+ to Fe^2+. On the procedure: Solutions containing 40 μM FeCl3 and varying concentrations of RA, DSS, and CA (0, 0.625, 1.25, 5, 10, 20, and 40 μM) were prepared and analyzed. Each sample was combined with 0.25% o‐phenanthroline (2 mL) followed by a pH adjustment to 3.5 with HCl, and Milli‐Q water was added to reach a final volume of 25 mL. After incubation at room temperature for 1 h, the absorbance at 510 nm was measured using a microplate spectrophotometer (Benchmark Plus, Bio‐Rad), and the concentration of Fe^2+ was determined using FeSO4·7H2O as a standard. The Fe^2+ concentrations were plotted and fitted as a function of Log2(inhibitor concentration) using GraphPad Prism (version: 9.5.0) software with a nonlinear regression model. The half maximal effective concentration (EC50) was calculated by reading the inhibitor concentrations at an Fe^2+ concentration of 20 μM.

Data set [3] has as its system V. metschnikovii. The experiment in a line: Bacteriostatic assay. The format is cell-based. The following applies: Vibrio metschnikovii, 20 h, NB medium, 37°C, 20 h culture; concentration at inhibitory rate of 95%. On the procedure:
A pre‐culture of V. metschnikovii was prepared in 5 mL of NB medium (3.0 g/L meat extract, 5.0 g/L meat peptone, 10.0 g/L NaCl, pH 7.0) at 37°C. When the OD600 reached ~0.6, 2 μL of the pre‐culture was inoculated into 200 μL of NB medium for the bacteriostatic assay. The culture was performed at 37°C in a 96‐well plate. Bacteriostatic agents (RA, DSS, and CA) were tested at a range of concentrations (5000 μM to 39 μM). The cultures without bacteriostatic agents were used as a natural growth control and the cultures without bacteria were used as the respective sterile controls (Blanks). The OD600 was measured using a microplate spectrophotometer (Benchmark Plus, Bio‐Rad).
The antibacterial inhibitory rates were calculated based on the following formula after culture for 20 h: Inhibitory rates%=1−OD600,NG−OD600,BKs−OD600,Is−OD600,BKs/OD600,NG−OD600,BKs×100%,
where NG, Is, and BKs refer to the natural growth control group, experimental groups with inhibitors, and their respective sterile control groups, respectively.
The inhibitory rate was plotted and fitted as a function of Log2(inhibitor concentration) using GraphPad Prism (version: 9.5.0) software with a nonlinear regression model. The MIC was calculated by reading the concentrations at the inhibitory rate of 95%.

Data set [4] addresses VmFbpA. Briefly: Isothermal titration calorimetry (ITC) of ligand binding to VmFbpA. Also noted: species or system Vibrio metschnikovii. The following applies: 298 K, 20 mM HEPES pH 8.0, 50 mM NaCl, apo VmFbpA, read-out: K D for VmFbpA. On the procedure: The 6× His‐free apo VmFbpA samples were dialyzed overnight at 4°C against dialysis buffer (20 mM pH 8.0 HEPES, 50 mM NaCl). ITC was performed using MicroCal iTC200 (Malvern). RA, DSS, or CA was dissolved in dialysis buffer at a final concentration of 400 μM and injected 20 times by a motor‐driven syringe into 200 μL of 20 μM Apo VmFbpA. The first injection volume was 0.1 μL and subsequent injection volumes were 2.0 μL. The reference cell of the microcalorimeter was filled with 200 μL of the corresponding dialysis buffer. The titrations were performed at room temperature. The data were analyzed using MicroCal LLC iTC 200 for Windows (Malvern). All experiments were repeated at least twice to ensure reproducibility.
For orientation: In ITC the heat of successive injections is recorded.

Data set [5] addresses (UniProt Z9CIZ5JT55). The experiment in a line: 6×His-based VmFbpA inhibition assay (pull-down assay) of Fe3+ binding. To be noted: 60 min at 4°C, 20 mM Tris–HCl pH 8.0, 50 mM NaHCO3, 100 mM NaCl, read-out: IC50 to VmFbpA (inhibition of Fe^3+ binding). Type of data set: biochemical, Vibrio metschnikovii. On the procedure: as §1, §2, §3
Data set [6] has as its system Escherichia coli. The arrangement: method as in Lu et al. [2021]. To be noted: 1000 μM; ref Lu et al. [2021]; cited from earlier work.
The subject of data set [7] is V. metchnikovii. The arrangement: method as in Lu et al. [2021]. To be noted: 1000 μM; ref Lu et al. [2021]; cited from earlier work.
On the set-up of data set [8]: method as in Sik et al. [2021]. To be noted: after 3 months of storage; ref Sik et al. [2021]; cited from earlier work.
Data set [9] in a line: Stability of RA in gel filtration buffer by RPC. The format is physicochemical. On the procedure:
The stability of RA (1 mg/mL) in gel filtration buffer (20 mM Tris–HCl, pH 8.0, and 100 mM NaCl) at 20°C was assessed in the presence and absence of VmFbpA (molar ratio: 1 to 1) by the same RPC analysis. Sampling was performed every week and diluted 100 times with buffer before injecting into a RESOURCE RPC column. The other conditions are the same as described above.
(In general: In gel filtration, larger molecules generally elute earlier.)

As for `O=C(O)/C=C/c1ccc(O)c(O)c1` [CA, caffeic acid], the IC50 in [1] was 6 ± 2 mM. Further, the EC50 in [2] worked out at 31 ± 1 µM. Besides, the MIC in data set [3] was above 3000 µM. Also, in data set [4], the Kd was 18000 nM and ~18000 nM.

With `O=C(O)[C@H](O)Cc1ccc(O)c(O)c1` [DSS, danshensu], the IC50 in data set [1] is 4 ± 1 mM. Also, in [2], the EC50 was found to be 23 ± 1 µM. Also, the Kd in [4] was 900 nM and ~900 nM.

Turning to `O=C(/C=C/c1ccc(O)c(O)c1)O[C@H](Cc1ccc(O)c(O)c1)C(=O)O` [RA, Rosmarinic acid], the IC50 in data set [5] was 2.2 ± 0.3 mM. Besides, the “effect on growth of Escherichia coli” value in [6] is listed as “did not affect the growth”. Further, the EC50 in data set [2] came out at 14.4 ± 0.1 µM. Moreover, in data set [7], the “effect on growth of V. metchnikovii” value is “significantly reduced the growth”. The “hydrolysis rate of RA aqueous solution” value in data set [8] is given as “exceeded 10%”. In addition, in data set [9] (20 mM Tris–HCl pH 8.0, 100 mM NaCl, stored at 20°C for 1 week), the “degradation of RA” value is on record as 5%. In addition, the “degradation rate of RA” value in data set [9] (20 mM Tris–HCl pH 8.0, 100 mM NaCl, stored at 20°C for 2 weeks) is listed as ~ 30%. The “change of degradation rate of RA in the presence of VmFbpA” value in [9] (VmFbpA added at molar ratio 1:1, gel filtration buffer) was “did not change significantly”. The molecule further returned an MIC in [3] of 440 ± 70 µM (≈ 159 µg/mL). Further, the Kd in data set [4] was 1100 ± 500 nM.

Usually IC50 stands for the concentration that inhibits the measured activity by half. Usually EC50 stands for the concentration needed to bring the measured effect to its halfway point. A word on the MIC: it is the smallest concentration in the dilution series that meets the test's criterion for growth inhibition. Low readings indicate a more susceptible organism, high ones a less susceptible organism.
